The text below walks through data of patent publication EP2257297B1, “COMPOUNDS FOR USE IN THE TREATMENT OF ACNE, SEBORRHOEA AND SEBHORROEIC DERMATITIS, OR FOR REDUCING SEBUM SECRETION” (priority 2008, dated 2009).

What is called IC50 is the concentration at which inhibition is half-maximal.

For this assay, the target named is T1, human MC5R (Homo sapiens, UniProt P33032).
T1 construct: purchased Perkin Elmer RBXMC5M400UA
T1 sequence (P33032 whole entry): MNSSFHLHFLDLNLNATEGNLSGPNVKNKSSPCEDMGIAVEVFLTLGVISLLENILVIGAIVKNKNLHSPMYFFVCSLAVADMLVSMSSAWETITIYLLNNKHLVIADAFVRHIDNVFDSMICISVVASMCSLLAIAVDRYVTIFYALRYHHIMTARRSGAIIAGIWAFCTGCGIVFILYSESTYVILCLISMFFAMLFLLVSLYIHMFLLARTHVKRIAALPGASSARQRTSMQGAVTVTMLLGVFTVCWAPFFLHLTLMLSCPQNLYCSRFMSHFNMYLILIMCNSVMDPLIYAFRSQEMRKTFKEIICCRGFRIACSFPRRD
The experiment in a line: Human MC5R radioligand binding assay ([125I] NDP-MSH displacement, hMC5R membranes). As to conditions: hMC5R assay as in Example 102; compounds tested as trifluoroacetate or hydrochloride salts, or as free base. As for the experimental part: After incubation for 10 mins the phosphate buffer containing the iodine was added to NDP-MSH (10 ul at 1 mg/mL) in a separate eppendorf tube. This was incubated for a further 10 mins.
Resuspended membranes were kept on ice until they were added to the wells of the plate.
Assays were performed in 96 well polypropylene plates. […] This was incubated for 1 hr at 37 °C. Non-specific binding was determined with […] NDP-MSH. Plates were filtered using a Tomtec cell harvester with GF/A filters (Wallac) (presoaked in 0.6% polyethylenimine) and washed three times with 1.0 mL ice-cold wash buffer (the above incubation buffer without 1,10-phenanthroline and Complete™ protease inhibitor tablet). The filters were dried in a 37 °C oven, placed in a sample bag and 5 mL Betaplatescint (Wallac) was added. Prepared filters were counted in cassettes in a Microbeta Trilux (Wallac) for 1 min. […] Data analysis was performed using GraphPad Prism 4, employing competition binding with a single site model and a fixed Hill coefficient. The following equation was used: Y = Bottom + (Top-Bottom)/1/10^(X-logEC50), where X = log(concentration) and Y = binding to fit the data.
As to `N=C(N)NCCC[C@@H]1N[C@H](CNC(=O)CC2CCCCC2)CCN(CC(c2ccccc2)c2ccccc2)C1=O` [Compound 147, 2-cyclohexyl-N-(((3S,5S)-1-(2,2-diphenylethyl)-3-(3-guanidinopropyl)-2-oxo-1,4-diazepan-5-yl)methyl)acetamide], the IC50 was under 1000 nM.

On to `N=C(N)NCCC[C@@H]1N[C@H](CNC(=O)c2ccc3c(c2)OCO3)CCN(CC(c2ccccc2)c2ccccc2)C1=O` [Compound 148, N-(((3S,5S)-1-(2,2-diphenylethyl)-3-(3-guanidinopropyl)-2-oxo-1,4-diazepan-5-yl)methyl)benzo[d][1,3]dioxole-5-carboxamide], for which the IC50 was under 1000 nM. `N=C(N)NCCC[C@@H]1N[C@H](CNC(=O)c2ccc3[nH]cnc3c2)CCN(CC(c2ccccc2)c2ccccc2)C1=O` [Compound 149, N-(((3S,5S)-1-(2,2-diphenylethyl)-3-(3-guanidinopropyl)-2-oxo-1,4-diazepan-5-yl)methyl)-1H-benzo[d]imidazole-5-carboxamide]: the IC50 is under 10000 nM.

For `N=C(N)NCCC[C@@H]1N[C@H](CNC(=O)c2ccc3[nH]nnc3c2)CCN(CC(c2ccccc2)c2ccccc2)C1=O` [Compound 150, N-(((3S,5S)-1-(2,2-diphenylethyl)-3-(3-guanidinopropyl)-2-oxo-1,4-diazepan-5-yl)methyl)-1H-benzo[d][1,2,3]triazole-5-carboxamide], the IC50 is under 10000 nM. Regarding `N=C(N)NCCC[C@@H]1N[C@H](CNC(=O)C2CCCC2)CCN(CC(c2ccccc2)c2ccccc2)C1=O` [Compound 151, N-(((3S,5S)-1-(2,2-diphenylethyl)-3-(3-guanidinopropyl)-2-oxo-1,4-diazepan-5-yl)methyl)cyclopentanecarboxamide], the IC50 is under 10000 nM. The same measure for `N=C(N)NCCC[C@@H]1N[C@H](CNC(=O)c2ccc(Cl)c(Cl)c2)CCN(CC(c2ccccc2)c2ccccc2)C1=O` [Compound 152, 3,4-dichloro-N-(((3S,5S)-1-(2,2-diphenylethyl)-3-(3-guanidinopropyl)-2-oxo-1,4-diazepan-5-yl)methyl)benzamide]: under 100 nM.

Turning to `N=C(N)NCCC[C@@H]1N[C@H](CNC(=O)c2cc(Cl)cc(Cl)c2)CCN(CC(c2ccccc2)c2ccccc2)C1=O` [Compound 154, 3,5-dichloro-N-(((3S,5S)-1-(2,2-diphenylethyl)-3-(3-guanidinopropyl)-2-oxo-1,4-diazepan-5-yl)methyl)benzamide], the IC50 was under 1000 nM. To `N=C(N)NCCC[C@@H]1N[C@H](CNC(=O)Cc2ccc(Cl)cc2Cl)CCN(CC(c2ccccc2)c2ccccc2)C1=O` [Compound 155, 2-(2,4-dichlorophenyl)-N-(((3S,5S)-1-(2,2-diphenylethyl)-3-(3-guanidinopropyl)-2-oxo-1,4-diazepan-5-yl)methyl)acetamide] belongs under 1000 nM; to `COc1c(C(=O)NC[C@@H]2CCN(CC(c3ccccc3)c3ccccc3)C(=O)[C@H](CCCNC(=N)N)N2)ccc2ccccc12` [Compound 156, N-(((3S,5S)-1-(2,2-diphenylethyl)-3-(3-guanidinopropyl)-2-oxo-1,4-diazepan-5-yl)methyl)-1-methoxy-2-naphthamide], under 100 nM.

Regarding `N=C(N)NCCC[C@@H]1N[C@H](CNC(=O)Cc2ccc(Cl)c(Cl)c2)CCN(CC(c2ccccc2)c2ccccc2)C1=O` [Compound 157, 2-(3,4-dichlorophenyl)-N-(((3S,5S)-1-(2,2-diphenylethyl)-3-(3-guanidinopropyl)-2-oxo-1,4-diazepan-5-yl)methyl)acetamide], the concentration for half-maximal inhibition (IC50) is under 10000 nM. The same measure for `COc1ccc2cc(C(=O)NC[C@@H]3CCN(CC(c4ccccc4)c4ccccc4)C(=O)[C@H](CCCNC(=N)N)N3)ccc2c1` [Compound 158, N-(((3S,5S)-1-(2,2-diphenylethyl)-3-(3-guanidinopropyl)-2-oxo-1,4-diazepan-5-yl)methyl)-6-methoxy-2-naphthamide]: under 100 nM; for `N=C(N)NCCC[C@@H]1N[C@H](CNC(=O)/C=C/c2ccc(Cl)cc2Cl)CCN(CC(c2ccccc2)c2ccccc2)C1=O` [Compound 160, (E)-3-(2,4-dichlorophenyl)-N-(((3S,5S)-1-(2,2-diphenylethyl)-3-(3-guanidino-propyl)-2-oxo-1,4-diazepan-5-yl)methyl)acrylamide]: under 100 nM; for `N=C(N)NCCC[C@@H]1N[C@H](CNC(=O)C23CC4CC(CC(C4)C2)C3)CCN(CC(c2ccccc2)c2ccccc2)C1=O` [Compound 161, N-(((3S,5S)-1-(2,2-diphenylethyl)-3-(3-guanidinopropyl)-2-oxo-1,4-diazepan-5-yl)methyl)-adamantane-1-carboxamide]: under 10000 nM. On to `N=C(N)NCCC[C@@H]1N[C@H](CNC(=O)COc2ccccc2)CCN(CC(c2ccccc2)c2ccccc2)C1=O` [Compound 162, N-(((3S,5S)-1-(2,2-diphenylethyl)-3-(3-guanidinopropyl)-2-oxo-1,4-diazepan-5-yl)methyl)-2-phenoxyacetamide], for which the IC50 is under 10000 nM.

Consider `COc1cc2ccccc2cc1C(=O)NC[C@@H]1CCN(CC(c2ccccc2)c2ccccc2)C(=O)[C@H](CCCNC(=N)N)N1` [Compound 163, N-(((3S,5S)-1-(2,2-diphenylethyl)-3-(3-guanidinopropyl)-2-oxo-1,4-diazepan-5-yl)methyl)-3-methoxy-2-naphthamide], for which the IC50 is under 1000 nM. Turning to `N=C(N)NCCC[C@@H]1N[C@H](CNC(=O)c2ccc(Br)cc2)CCN(CC(c2ccccc2)c2ccccc2)C1=O` [Compound 164, 4-bromo-N-(((3S,5S)-1-(2,2-diphenylethyl)-3-(3-guanidinopropyl)-2-oxo-1,4-diazepan-5-yl)methyl)benzamide], the half-maximal inhibitory concentration (IC50) is under 1000 nM. `N=C(N)NCCC[C@@H]1N[C@H](CNC(=O)[C@@H]2COc3ccccc3O2)CCN(CC(c2ccccc2)c2ccccc2)C1=O` [Compound 165, (S)-N-(((3S,5S)-1-(2,2-diphenylethyl)-3-(3-guanidinopropyl)-2-oxo-1,4-diazepan-5-yl)methyl)-2,3-dihydrobenzo[b][1,4]dioxine-2-carboxamide]: the IC50 is under 1000 nM. For the molecule `N=C(N)NCCC[C@@H]1N[C@H](CNC(=O)/C=C/c2cccs2)CCN(CC(c2ccccc2)c2ccccc2)C1=O` [Compound 167, (E)-N-(((3S,5S)-1-(2,2-diphenylethyl)-3-(3-guanidinopropyl)-2-oxo-1,4-diazepan-5-yl)methyl)-3-(thiophen-2-yl)acrylamide], the IC50 is under 100 nM. To `N=C(N)NCCC[C@@H]1N[C@H](CNC(=O)[C@H]2COc3ccccc3O2)CCN(CC(c2ccccc2)c2ccccc2)C1=O` [Compound 168, (R)-N-(((3S,5S)-1-(2,2-diphenylethyl)-3-(3-guanidinopropyl)-2-oxo-1,4-diazepan-5-yl)methyl)-2,3-dihydrobenzo[b][1,4]dioxine-2-carboxamide] belongs under 1000 nM. The same measure for `N=C(N)NCCC[C@@H]1N[C@H](CNC(=O)/C=C/c2ccc(O)cc2)CCN(CC(c2ccccc2)c2ccccc2)C1=O` [Compound 169, (E)-N-(((3S,5S)-1-(2,2-diphenylethyl)-3-(3-guanidinopropyl)-2-oxo-1,4-diazepan-5-yl)methyl)-3-(4-hydroxyphenyl)acrylamide]: under 1000 nM; for `Cc1ccc(/C=C/C(=O)NC[C@@H]2CCN(CC(c3ccccc3)c3ccccc3)C(=O)[C@H](CCCNC(=N)N)N2)cc1` [Compound 171, (E)-N-(((3S,5S)-1-(2,2-diphenylethyl)-3-(3-guanidinopropyl)-2-oxo-1,4-diazepan-5-yl)methyl)-3-p-tolylacrylamide]: under 100 nM. The same measure for `N=C(N)NCCC[C@@H]1N[C@H](CNC(=O)/C=C/c2ccccc2C(F)(F)F)CCN(CC(c2ccccc2)c2ccccc2)C1=O` [Compound 172, (E)-N-(((3S,5S)-1-(2,2-diphenylethyl)-3-(3-guanidinopropyl)-2-oxo-1,4-diazepan-5-yl)methyl)-3-(2-(trifluoromethyl)phenyl)acrylamide]: under 1000 nM; for `N=C(N)NCCC[C@@H]1N[C@H](CNC(=O)/C=C/c2cccc(F)c2)CCN(CC(c2ccccc2)c2ccccc2)C1=O` [Compound 173, (E)-N-(((3S,5S)-1-(2,2-diphenylethyl)-3-(3-guanidinopropyl)-2-oxo-1,4-diazepan-5-yl)methyl)-3-(3-fluorophenyl)acrylamide]: under 100 nM.

With `N=C(N)NCCC[C@@H]1N[C@H](CNC(=O)COc2ccc(Cl)cc2Cl)CCN(CC(c2ccccc2)c2ccccc2)C1=O` [Compound 176, 2-(2,4-dichlorophenoxy)-N-(((3S,5S)-1-(2,2-diphenylethyl)-3-(3-guanidinopropyl)-2-oxo-1,4-diazepan-5-yl)methyl)acetamide], the IC50 was under 100 nM. With `N=C(N)NCCC[C@@H]1N[C@H](CNC(=O)/C=C/c2cccc(Cl)c2)CCN(CC(c2ccccc2)c2ccccc2)C1=O` [Compound 177, (E)-3-(3-chlorophenyl)-N-(((3S,5S)-1-(2,2-diphenylethyl)-3-(3-guanidinopropyl)-2-oxo-1,4-diazepan-5-yl)methyl)acrylamide], the concentration for half-maximal inhibition (IC50) was under 100 nM. The same measure for `N=C(N)NCCC[C@@H]1N[C@H](CNC(=O)c2ccc3ncsc3c2)CCN(CC(c2ccccc2)c2ccccc2)C1=O` [Compound 178, N-(((3S,5S)-1-(2,2-diphenylethyl)-3-(3-guanidinopropyl)-2-oxo-1,4-diazepan-5-yl)methyl)benzo[d]thiazole-6-carboxamide]: under 1000 nM.
